Experiment: Radioactivity in brain lipid fractions after 5 min intravenous 14C-tracer infusion (TLC, LSC)
Format: in vivo, rat
Conditions: MEP vs vehicle
Description: Twenty-four hours postsurgery, a second catheter (iv catheter 24 gauge/0.75 inch, Angiocath™; Becton Dickinson) was implanted into the tail vein where rats received either vehicle or 10 mg/kg of MEP. Ten minutes post injection of vehicle or MEP, the tail vein catheter was connected to a syringe containing radiolabeled ^14C-palmitate (n = 8), ^14C-DHA (n = 6), or ^14C-EPA (n = 7) attached to a computer-controlled variable speed pump (PHD 22/2000; Harvard Apparatus, Holliston, MA). […] Each rat received a dose of 76 μCi ^14C-palmitate, 76 μCi ^14C-DHA, or 78 μCi ^14C-EPA. […] The radiotracer infusions continued until rats were euthanized. The brain was excised and cut sagittally. Both hemispheres were stored at −80°C for radioactive and biochemical analyses. Plasma was isolated from whole blood via microcentrifugation at 6,200 rpm (2,000 g) for 5 min and stored at −80°C. Total lipids from one brain hemisphere and from plasma were extracted by the method of Folch, Lees, and Sloane Stanley ([39]). Isolation of various neutral lipid and phospholipid classes from the total lipid extract was previously described by Chen, Liu, and Bazinet ([6]). FA methyl esters and radioactive acyl-CoA analysis were previously described by Chen, Liu, and Bazinet ([6]).

## CCCCCCCCCCCCCCC1(C(=O)OC)CO1 (centres unmarked) [MEP, methyl-2-tetradecylglycidate, reference compound]
14C-EPA-infused rats
  increase in radioactivity of PtdSer: 49%
14C-palmitate-infused rats
  increase in radioactivity of PtdIns: 65%
